Counter-ions that a name gives are not always drawn.
Assay: in vitro
Settings: rat, gh3-tre-luc cells, AC50 (uM) modified / 1000

SMILES | CC50 at 24 h
O=[N+]([O-])c1ccc(/C=C/c2ccc([N+](=O)[O-])cc2S(=O)(=O)O)c(S(=O)(=O)O)c1 [Disodium 4,4'-dinitro-2,2'-stilbenedisulfonate] | > 90 µM
CCCCCC(=O)OCC [Ethyl hexanoate] | > 90 µM
O=C(O)c1cc(C(=O)O)cc(C(=O)O)c1 [1,3,5-Benzenetricarboxylic acid] | > 90 µM
CCCC(=O)Nc1ncnc2c1ncn2[C@@H]1O[C@@H]2COP(=O)(O)O[C@H]2[C@H]1OC(=O)CCC [Bucladesine] | > 50 µM
Nc1ccncc1N [3,4-Diaminopyridine] | > 50 µM
Cc1ccnc(N)c1 [4-Methylpyridin-2-amine] | > 90 µM
Cc1cccc(Nc2cc(Cl)nc(SCC(=O)O)n2)c1C [Pirinixic acid] | > 90 µM
O=C1Nc2ccc([N+](=O)[O-])cc2C1=O [5-Nitroisatin] | > 90 µM
CC(C)=CCC[C@](C)(O)[C@@H]1CC=C(C)CC1 [Levomenol] | > 90 µM
C=C1[C@@H]2CC[C@@H](C2)C1(C)C [Camphene] | > 90 µM
COC(=O)[C@H]1[C@H]2C[C@@H]3c4[nH]c5cc(OC)ccc5c4CCN3C[C@H]2C[C@H](OC)[C@@H]1OC [Metoserpate hydrochloride] | > 50 µM
CCCCCNC(=N)N/N=C/c1c[nH]c2ccc(OC)cc12 [Tegaserod] | > 50 µM
O=C1c2ccccc2C(=O)N1CCc1noc(-c2ccc(CN3CCCCCC3)s2)n1 [PharmaGSID_48172] | > 80 µM
COP(=S)(OC)Oc1ccc(SC)c(C)c1 [Fenthion] | > 90 µM
CC/C=C\CC/C=C/CO [trans-2,cis-6-Nonadien-1-ol] | > 90 µM
CC(=O)Oc1ccc2c(c1)CC[C@@H]1[C@@H]2CC[C@]2(C)[C@@H](O)CC[C@@H]12 [Estradiol acetate] | 22.3 µM
COc1ccc(CCN(C)CCCC(C#N)(c2cc(OC)c(OC)c(OC)c2)C(C)C)cc1OC (centres unmarked) [Gallopamil hydrochloride] | 21 µM
CCCCCCCCCCCCCCCCCC[N+](C)(C)CCC[Si](OC)(OC)OC [N,N-Dimethyl-N-(3-(trimethoxysilyl)propyl) octadecan-1-aminium chloride] | > 50 µM
CCCOc1ccc2nc(NC(=O)OC)[nH]c2c1 [Oxibendazole] | 0.527 µM
O=C(O)c1cccc(N(Cc2cccnc2)c2ccc(OC(F)F)c(OC(F)F)c2)c1 [PharmaGSID_48510] | 75.3 µM
C=CC(=O)OCC [Ethyl acrylate] | > 90 µM
CC1=C(C(=O)O)N2C(=O)[C@@H](NC(=O)[C@H](N)C3=CCC=CC3)[C@H]2SC1 [Cephradine] | > 50 µM
O=C(NC(Cc1cc(=O)[nH]c2ccccc12)C(=O)O)c1ccc(Cl)cc1 (centres unmarked) [Rebamipide] | > 50 µM
F/C(COc1ccc2c(c1)[nH]c1ccccc12)=C1/CN2CCC1CC2 [2-{[(2E)-2-(1-Azabicyclo[2.2.2]oct-3-ylidene)-2-fluoroethyl]oxy}-9H-carbazole] | 7.59 µM
CCOC(=O)c1ncn2c1CN(C)C(=O)c1c(I)cccc1-2 [Iomazenil] | > 50 µM
O=C(NC(=O)c1c(F)cccc1F)Nc1cc(Cl)c(OC(F)(F)C(F)F)c(Cl)c1 [Hexaflumuron] | > 90 µM
O=C(Nc1ccccc1)N(Cc1ccc(Cl)cc1)C1CCCC1 [Pencycuron] | 54.7 µM
Cc1cc(C2CCCCC2)n(O)c(=O)c1 [Ciclopirox olamine] | 1.9 µM
Clc1ccc(C2(Cn3cncn3)OCCO2)c(Cl)c1 [Azaconazole] | > 90 µM
CC(=O)OCc1ccc2c(c1)OCO2 [Piperonyl acetate] | > 90 µM

Same assay, conditions: rat, gh3-tre-luc cells, AC50 (uM) modified / 1000, Tox21_110001=Tox21_111349; viability, 1 nM T3 present, 24 h

SMILES | CC50 at 24 h
COc1cc2c(cc1OC)[C@@]13CCN4CC5=CCO[C@H]6CC(=O)N2[C@H]1[C@H]6[C@H]5C[C@H]43 [Brucine] | > 50 µM

Same assay, conditions: rat, gh3-tre-luc cells, AC50 (uM) modified / 1000, Tox21_110001=Tox21_201878; viability, 1 nM T3 present, 24 h

SMILES | CC50 at 24 h
CCC(C)c1cc([N+](=O)[O-])cc([N+](=O)[O-])c1O (centres unmarked) [Dinoseb] | > 90 µM

Same assay, conditions: rat, gh3-tre-luc cells, AC50 (uM) modified / 1000, Tox21_110001=Tox21_300421; viability, 1 nM T3 present, 24 h

SMILES | CC50 at 24 h
CCC(C)c1cc([N+](=O)[O-])cc([N+](=O)[O-])c1O (centres unmarked) [Dinoseb] | 20.4 µM

Same assay, conditions: rat, gh3-tre-luc cells, AC50 (uM) modified / 1000, Tox21_110001=Tox21_300752; viability, 1 nM T3 present, 24 h

SMILES | CC50 at 24 h
CCCSP(=O)(OCC)Oc1ccc(Br)cc1Cl (centres unmarked) [Profenofos] | > 50 µM

Same assay, conditions: rat, gh3-tre-luc cells, AC50 (uM) modified / 1000, Tox21_110001=Tox21_302174; viability, 1 nM T3 present, 24 h

SMILES | CC50 at 24 h
COc1cc2c(cc1OC)[C@@]13CCN4CC5=CCO[C@H]6CC(=O)N2[C@H]1[C@H]6[C@H]5C[C@H]43 [Brucine] | > 90 µM

Source: article PMC6792352, “Limited Chemical Structural Diversity Found to Modulate Thyroid Hormone Receptor in the Tox21 Chemical Library” (Environmental Health Perspectives, 2019)
